These results are taken from patent publication US20110112135A1, “Imidazo [1,2-A] Pyridine Compounds” (priority 2007, published 2011).

Usually pEC50 stands for the negative decadic logarithm of the EC50, by convention in mol/L. For orientation: pIC50 means −log10 of the IC50, conventionally taken in molar units. Lower therefore signals a high IC50.

For test [1], the system named is ABCA1 gene. The test can be described thus: Quantitative analysis of ABCA1 gene regulation in THP-1 cells (real-time PCR). The test is classed as cell-based, human. The settings on record: Gene regulation by LXR (Human), differentiated THP-1 cells, 18 hrs; for pEC50: ABCA1 mRNA, read-out: EC50 ABCA1; for Emax: LXR agonist reference at 1.0 uM as positive control, read-out: Agonism ABCA1. On the technique in general: In qPCR the cycle at which signal appears reflects the starting amount.

Test [2] deals with T1, human LXRα (Homo sapiens, UniProt Q13133).
T1 construct: biotin (biotinylated); made in house; host or cells: E. coli (crude extract)
T1 sequence (Q13133 1-447): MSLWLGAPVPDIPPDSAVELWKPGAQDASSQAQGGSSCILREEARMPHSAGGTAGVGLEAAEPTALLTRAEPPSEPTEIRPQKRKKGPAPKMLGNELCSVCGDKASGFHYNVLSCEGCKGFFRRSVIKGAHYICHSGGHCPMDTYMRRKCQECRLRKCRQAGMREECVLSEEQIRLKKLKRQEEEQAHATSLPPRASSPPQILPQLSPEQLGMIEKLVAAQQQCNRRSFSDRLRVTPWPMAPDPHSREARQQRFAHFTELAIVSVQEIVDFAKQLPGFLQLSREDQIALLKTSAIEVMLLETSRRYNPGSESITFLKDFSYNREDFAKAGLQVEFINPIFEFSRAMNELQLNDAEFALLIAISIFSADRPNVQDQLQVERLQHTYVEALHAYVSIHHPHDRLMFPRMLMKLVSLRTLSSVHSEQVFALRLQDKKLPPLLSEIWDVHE
The test can be described thus: Ligand-binding test procedure for human LXRα (3H T0901317 tracer, flash plates). To be noted: biotinylated hLXRα from E. coli extract; tracer 3H T0901317. The method, boiled down:
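Biotinylated hLXRα from E. coli extract (50 mM Tris) captured on streptavidin flash plates overnight at 4 °C. Compound dilution series mixed with 5 nM [3H]T0901317 (concentration before mixing), incubated overnight at 4 °C; wells aspirated, washed and remaining radioactivity counted.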

For test [3], the target named is T2, human LXRβ (Homo sapiens, UniProt P55055).
T2 construct: biotin (biotinylated); made in house; host or cells: E. coli (crude extract)
T2 sequence (P55055 1-460): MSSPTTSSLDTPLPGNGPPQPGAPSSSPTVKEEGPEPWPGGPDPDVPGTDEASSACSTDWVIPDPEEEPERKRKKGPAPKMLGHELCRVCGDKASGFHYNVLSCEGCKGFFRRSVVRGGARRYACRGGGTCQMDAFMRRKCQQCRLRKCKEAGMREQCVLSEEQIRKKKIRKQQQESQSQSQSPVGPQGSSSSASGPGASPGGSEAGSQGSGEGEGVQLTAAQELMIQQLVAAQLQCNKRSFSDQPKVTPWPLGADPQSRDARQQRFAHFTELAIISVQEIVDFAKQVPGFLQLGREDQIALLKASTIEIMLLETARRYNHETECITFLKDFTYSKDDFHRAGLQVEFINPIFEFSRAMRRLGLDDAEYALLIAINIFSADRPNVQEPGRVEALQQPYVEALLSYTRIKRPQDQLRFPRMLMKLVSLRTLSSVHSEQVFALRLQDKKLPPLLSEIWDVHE
The experiment in a line: Ligand-binding test procedure for human LXRβ (3H T0901317 tracer, flash plates). To be noted: biotinylated hLXRβ from E. coli extract; tracer 3H T0901317. A digest of the protocol: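 Biotinylated hLXRβ from E. coli extract was captured on streptavidin flash plates (Bmax ~4000 cpm) at 4 °C overnight. Test ligand dilutions were mixed with 5 nM [3H]T0901317 tracer solution and incubated on the plates overnight at 4 °C; bound radioactivity was counted after washing.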

Each structure is given as a SMILES string. pEC50, pIC50: −log10 of the molar value.

`CCCCOCc1nc2c(C(F)(F)F)cccn2c1-c1ccc(Oc2cccc(S(C)(=O)=O)c2)cc1` [Example 128, 2-(butoxymethyl)-3-{4-[3-(methylsulfonyl)phenoxy]phenyl}-8-(trifluoromethyl)imidazo[1,2-a]pyridine]: in test [1], the pEC50 is 7.40 and the Emax was 76%. The compound further had a pIC50 in test [2] of 6.37. The same compound gave a pIC50 in test [3] of 7.55.
With `CS(=O)(=O)c1cccc(Oc2cccc(-c3c(Cn4ccnc4)nc4c(C(F)(F)F)cccn34)c2)c1` [Example 129, 2-(1H-imidazol-1-ylmethyl)-3-{3-[3-(methylsulfonyl)phenoxy]phenyl}-8-(trifluoromethyl)imidazo[1,2-a]pyridine], in test [1], the pEC50 was 6.87 and the Emax is 103%. This compound had a pIC50 in test [2] of 6.43. In test [3], the pIC50 was 7.52.
